Here are results for 17 compounds from patent US20250197399A1, “COMPOUNDS, COMPOSITIONS, AND METHODS” (Tenvie Therapeutics, Inc., priority 2022, published 2025).

Where two headings read alike, the source gives them in different places.

The subject of this test is NLRP3. Description: IL-1β secretion assay in PMA-differentiated, LPS/nigericin-stimulated THP-1 cells (ELISA). Conditions: 25 ng/mL LPS then nigericin, IL-1β in supernatant. The test is classed as cell-based. The procedure:
Compounds as provided herein were tested in the following assay. Cell culture medium employed contained RPMI 1640 medium (89%), FBS (10%), Pen/Strep (1%), and 2-mercaptoethanol (0.05 mM). Freezing medium was made up of 90% FBS and 10% DMSO. THP-1 cells were removed from the liquid nitrogen and placed into a 37° C. water bath to thaw, until signs of ice dissipated. The cells were then added to 9 mL of warm cell culture medium and centrifuged for 5 minutes at 1000 rpm. The supernatant was discarded, and the cells were resuspended in new cell culture medium. THP-1 cells were then split and cultured in the cell culture medium, being passaged every 2-3 days with the cell density will be maintained between 5×10^5 and 1.5×10^6 viable cells/mL.
PMA was dissolved in DMSO to make a stock solution at 5 mg/ml and stored in 10 μl aliquots at −20° C. for single use. PMA is added to normal growth medium. LPS was diluted with 1 mL of water solution to provide a 1 mg/mL stock solution and stored in 15 μL aliquots at −20° C. for single use. Nigericin is diluted in ice cold 100% ethanol to 5 mg/ml (6.7 mM) and stored in 75 μL aliquots at −20° C. for single use. Serum-free media contains RPMI 1640 medium (99%), Pen/Strep (1%), and 2-mercaptoethanol (0.05 mM). The two control conditions used to qualify and normalize test compound dose-response curves were as follows: High Control=25 ng/mL LPS, […], 0.5% DMSO, Low Control=25 ng/mL, LPS, 0.5% DMSO.
THP-1 cells were diluted to provide a suspension at a concentration of 1.0×10^6 cells/mL with the total volume of suspension required to enable the desired number of assay plates. The growth media was supplemented with PMA (5 ng/mL final concentration) and the cells were incubated at 37° C. under a humidified atmosphere of 5% CO2 for 40 h.
All media was carefully aspirated from each culture flask. The cells were washed carefully with 1×DPBS. The cells were then briefly digested with trypsin LE for 5 minutes at 23° C. and immediately resuspended in cell growth media. After resuspension, the cells were centrifuged at 1000 rpm for 3 minutes and the supernatant was discarded. The cells were resuspended in DPBS and once again centrifuged at 1000 rpm for 5 minutes. The supernatant was discarded and the cell pellet was resuspended in serum-free media supplemented with LPS (25 ng/mL final concentration) to enable the distribution of 30K THP-1 cells within 45 μL of media into each well of 384-well PDL-coated plates. The 384-well plates were then incubated at 37° C. under a humidified atmosphere of 5% CO2 for 2 h. Following this period, test compounds were dispensed by Tecan across the desired concentration range with all wells normalized to a final 0.5% DMSO concentration. The plates were then then incubated at 37° C. under a humidified atmosphere of 5% CO2 for 1 h. Following this period, 5 μL of the 5 mg/mL nigericin stock solution was added to each of the appropriate wells and plates were centrifuged at 1000 rpm for 30 seconds. The plates were the immediately reintroduced to the incubator at 37° C. under a humidified atmosphere of 5% CO2 for 2 h. After this time, 35 μL/well of supernatant was collected and transferred into v-bottom plate and centrifuged at 1000 rpm for 1 minute. These supernatant aliquots were analyzed using an IL-Iβ detection kit as described below. If needed, the test samples could be snap frozen and stored at −80° C. until analyzed.
To prepare each ELISA plate, capture antibody (mAb Mt175) was diluted with PBS to a final concentration of […] and then 20 μL of this solution was added to each well of the ELISA plate. Each plate was allowed to incubate overnight at 4° C. The next day, the capture antibody solution was removed and discarded. Each ELISA plate was washed 4 times with PBST followed by the addition of 25 µL/well of blocking buffer (Licor-927-40010) supplemented with 0.1% Tween 20. Each ELISA plate was then allowed to incubate for 1 hour at 23° C. […]

Setting [1] is: Homo sapiens, THP-1, THP-1 cells, read-out: Activity (IC50 class).
Setting [2] is: THP-1 cells, read-out: Activity.
Setting [3] is: THP-1 cells, read-out: Activity (IC50 class).
Where [4] appears, read: Homo sapiens, THP-1, THP-1 cells, read-out: Activity.

On to `O=C(CN1CC2(CC2(F)F)c2cc(C3CC3)ccc2C1=O)Nc1ncc(F)cn1` (single isomer, unassigned) [Example 28, N-(5-fluoropyrimidin-2-yl)-2-[6-cyclopropyl-1′,1′-difluoro-1-oxospiro[3H-isoquinoline-4,2′-cyclopropane]-2-yl]acetamide], for which the IC50 by setting is: under setting [1], 1 to 10 µM; under setting [2], 5.73 µM.

Regarding `O=C(CN1CC2(CC2(F)F)c2cc(C3CC3)ccc2C1=O)Nc1ncc(F)cn1` (single isomer, unassigned) [Example 29, N-(5-fluoropyrimidin-2-yl)-2-[6-cyclopropyl-1′,1′-difluoro-1-oxospiro[3H-isoquinoline-4,2′-cyclopropane]-2-yl]acetamide], the IC50 reads like this: under setting [2], 0.086 µM; under setting [3], < 1 µM.

Consider `O=C(CN1CC2(CC2(F)F)c2c(ccc(Br)c2F)C1=O)Nc1nc2ccccn2n1` (single isomer, unassigned) [Example 30, N-([1,2,4]triazolo[1,5-a]pyridin-2-yl)-2-[6-bromo-1′,1′,5-trifluoro-1-oxospiro[3H-isoquinoline-4,2′-cyclopropane]-2-yl]acetamide], for which the IC50 was 29.2 µM under setting [2] and > 10 µM under setting [3].

For `O=C(CN1CC2(CC2(F)F)c2c(ccc(Br)c2F)C1=O)Nc1nc2ccccn2n1` (single isomer, unassigned) [Example 31, N-([1,2,4]triazolo[1,5-a]pyridin-2-yl)-2-[6-bromo-1′,1′,5-trifluoro-1-oxospiro[3H-isoquinoline-4,2′-cyclopropane]-2-yl]acetamide], the IC50 under setting [2] stood at 0.033 µM and the IC50 under setting [3] is < 1 µM.

As for `Cc1cnc(NC(=O)CN2CC3(CC3(F)F)c3c(ccc(Br)c3F)C2=O)nc1` (single isomer, unassigned) [Example 32, N-(5-methylpyrimidin-2-yl)-2-[6-bromo-1′,1′,5-trifluoro-1-oxospiro[3H-isoquinoline-4,2′-cyclopropane]-2-yl]acetamide], the IC50 by setting is: under setting [2], 28.6 µM; under setting [3], > 10 µM.

Turning to `Cc1cnc(NC(=O)CN2CC3(CC3(F)F)c3c(ccc(Br)c3F)C2=O)nc1` (single isomer, unassigned) [Example 33, N-(5-methylpyrimidin-2-yl)-2-[6-bromo-1′,1′,5-trifluoro-1-oxospiro[3H-isoquinoline-4,2′-cyclopropane]-2-yl]acetamide], the IC50 is, setting by setting: under setting [2], 0.055 µM; under setting [3], < 1 µM.

On to `O=C(CN1CC2(CC2(F)F)c2c(ccc(C3CC3)c2F)C1=O)Nc1ncc(Cl)cn1` (single isomer, unassigned) [Example 34, N-(5-chloropyrimidin-2-yl)-2-[6-cyclopropyl-1′,1′,5-trifluoro-1-oxospiro[3H-isoquinoline-4,2′-cyclopropane]-2-yl]acetamide], for which the IC50 was 1 to 10 µM under setting [1] and 15.6 µM under setting [2].

Consider `O=C(CN1CC2(CC2(F)F)c2c(ccc(C3CC3)c2F)C1=O)Nc1ncc(Cl)cn1` (single isomer, unassigned) [Example 35, N-(5-chloropyrimidin-2-yl)-2-[6-cyclopropyl-1′,1′,5-trifluoro-1-oxospiro[3H-isoquinoline-4,2′-cyclopropane]-2-yl]acetamide], for which the IC50 runs as follows: under setting [2], 0.016 µM; under setting [3], < 1 µM.

As to `Cc1cnc(NC(=O)CN2CC3(CC3(F)F)c3c(ccc(C4CC4)c3F)C2=O)nc1` (single isomer, unassigned) [Example 36, N-(5-methylpyrimidin-2-yl)-2-[6-cyclopropyl-1′,1′,5-trifluoro-1-oxospiro[3H-isoquinoline-4,2′-cyclopropane]-2-yl]acetamide], the IC50 is, setting by setting: under setting [2], 22.4 µM; under setting [3], > 10 µM.

Consider `Cc1cnc(NC(=O)CN2CC3(CC3(F)F)c3c(ccc(C4CC4)c3F)C2=O)nc1` (single isomer, unassigned) [Example 37, N-(5-methylpyrimidin-2-yl)-2-[6-cyclopropyl-1′,1′,5-trifluoro-1-oxospiro[3H-isoquinoline-4,2′-cyclopropane]-2-yl]acetamide], for which the IC50 under setting [2] worked out at 0.078 µM and the IC50 under setting [3] is < 1 µM.

In the case of `O=C(CN1CC2(CC2(F)F)c2cc(C(F)(F)F)ccc2C1=O)Nc1ncc(Cl)cn1` (single isomer, unassigned) [Example 38, N-(5-chloropyrimidin-2-yl)-2-[1′,1′-difluoro-6-(trifluoromethyl)-1-oxospiro[3H-isoquinoline-4,2′-cyclopropane]-2-yl]acetamide], the IC50 was < 1 µM under setting [1] and 0.126 µM under setting [2].

Turning to `O=C(CN1CC2(CC2(F)F)c2cc(C(F)(F)F)ccc2C1=O)Nc1ncc(Cl)cn1` (single isomer, unassigned) [Example 39, N-(5-chloropyrimidin-2-yl)-2-[1′,1′-difluoro-6-(trifluoromethyl)-1-oxospiro[3H-isoquinoline-4,2′-cyclopropane]-2-yl]acetamide], the IC50 by setting is: under setting [2], 6.96 µM; under setting [3], 1 to 10 µM.

`O=C(CN1CC2(CC2(F)F)c2cc(C(F)(F)F)ccc2C1=O)Nc1ncc(F)cn1` (single isomer, unassigned) [Example 40, N-(5-fluoropyrimidin-2-yl)-2-[1′,1′-difluoro-6-(trifluoromethyl)-1-oxospiro[3H-isoquinoline-4,2′-cyclopropane]-2-yl]acetamide]: the IC50 is 1 to 10 µM under setting [1] and 9.37 µM under setting [2].

With `O=C(CN1CC2(CC2(F)F)c2cc(C(F)(F)F)ccc2C1=O)Nc1ncc(F)cn1` (single isomer, unassigned) [Example 41, N-(5-fluoropyrimidin-2-yl)-2-[1′,1′-difluoro-6-(trifluoromethyl)-1-oxospiro[3H-isoquinoline-4,2′-cyclopropane]-2-yl]acetamide], the IC50 reads like this: under setting [2], 0.067 µM; under setting [3], < 1 µM.

With `O=C(CN1C[C@]2(C[C@H]2F)c2c(ccc(Cl)c2F)C1=O)Nc1ncc(Cl)cn1` (single isomer, unassigned) [Example 43, 2-[(2′s,4r)-6-chloro-2′,5-difluoro-1-oxospiro[3H-isoquinoline-4,1′-cyclopropane]-2-yl]-N-(5-chloropyrimidin-2-yl)acetamide], the IC50 was 0.051 µM under setting [4] and < 1 µM under setting [1].

As to `Cc1cnc(NC(=O)CN2C[C@]3(C[C@H]3F)c3c(ccc(Cl)c3F)C2=O)nc1` (single isomer, unassigned) [Example 44, 2-[(2′s,4r)-6-chloro-2′,5-difluoro-1-oxospiro[3H-isoquinoline-4,1′-cyclopropane]-2-yl]-N-(5-methylpyrimidin-2-yl)acetamide], the IC50 under setting [4] is 0.113 µM and the IC50 under setting [1] is < 1 µM.

Take `O=C(CN1C[C@]2(C[C@H]2F)c2c(ccc(Cl)c2F)C1=O)Nc1ncc2cn[nH]c2n1` (single isomer, unassigned) [Example 45, 2-[(2′s,4r)-6-chloro-2′,5-difluoro-1-oxospiro[3H-isoquinoline-4,1′-cyclopropane]-2-yl]-N-(1H-pyrazolo[3,4-d]pyrimidin-6-yl)acetamide]: the IC50 runs as follows: under setting [4], 0.048 µM; under setting [1], < 1 µM.
